Source: patent publication US20240207240A1, “Method for Improving or Treating Cognitive Dysfunction Complicating HIV-associated Cryptococcal Meningitis with Lenalidomide” (The First Affiliated Hospital Zhejiang University School of …, priority 2022, published 2024)
Values joined by “and” are separate entries in the source; they are usually repeats but may differ in a detail not shown here. Identical values can stand only once.

Key:
[1] = test system: CSF cytokines; assay: Detection of inflammatory cytokines in CSF (Human Cytokine/Chemokine/Growth Factor Panel A); format: in vivo; conditions: W 24, after 6 cycles lenalidomide
Protocol: Detection of inflammatory cytokines in CSF: CSF samples were collected from the participants and centrifuged immediately; and the supernatant was stored at −80° C. until testing. 32 CSF cytokines were analyzed using the Human Cytokine/Chemokine/Growth Factor Panel A (Merck Millipore, St. Louis, USA): α-2-macroglobulin (α-2-M), apolipoprotein A-I (apoA-I), Apo-E, complement C3, complement factor H (CFH), fibroblast growth factor 2 (FGF-2), granulocyte-colony stimulating factor (G-CSF), granulocyte-macrophage colony-stimulating factor (GM-CSF), interferon-γ (IFN-γ), growth-regulated oncogene (GRO), soluble CD40 ligand (sCD40L), platelet-derived growth factor-AA (PDGF-AA), interleukin (IL)-12p40, IL-12p70, IL-13, IL-1α, IL-1β, IL-2, IL-3, IL-4, IL-6, IL-8, IL-10, IL-17α, monocyte chemoattractant protein-1 (MCP-1), macrophage inflammatory protein-la (MIP-la), MIP-1β, tumor necrosis factor-a (TNF-α), IL-17α, amyloid-β (1-42) (αβ42), total Tau (tTau) and phosphorylated Tau 181 (pTau181), The abbreviations of CSF cytokines are provided in Table 3.

[2] = withdrawal for adverse event in the lenalidomide treatment cohort; format: in vivo, human; conditions: of 8 patients with cognitive dysfunction at enrollment
Protocol: Screening process: 14 patients were included in the lenalidomide treatment cohort based on the inclusion and exclusion criteria: 8 had cognitive dysfunction at the time of enrollment. Among them, one patient withdrew from the study due to skin allergy, so only 7 patients were followed up for 24 weeks.
Lenalidomide Treatment: Patients were treated with six cycles of lenalidomide (one cycle: […] for 3 weeks, followed by 1 week ceased lenalidomide) when they were enrolled. The drug was stopped at the end of 6 cycles.

[3] = cited from earlier work
[4] = individual patients P1-P4 (cognitive improvement group)
[5] = individual patients P5-P7 (cognitive non-improvement group)

## Nc1cccc2c1CN(C1CCC(=O)NC1=O)C2=O (centres unmarked) [lenalidomide]
[1]; [4]
  CSF IL-6: 12.8 pg/mL and 63.58 pg/mL and 2.85 pg/mL (2×)
  CSF IL-8: 175.42 pg/mL and 164.92 pg/mL and 64.25 pg/mL and 118.93 pg/mL
  CSF IL-10: 4.21 pg/mL and 4.14 pg/mL and 2.45 pg/mL and 4.07 pg/mL
  CSF IL-12p40: 1.78 pg/mL and 0.38 pg/mL and 0.92 pg/mL and 10.92 pg/mL
  CSF IL-12p70: 2.46 pg/mL and 0.67 pg/mL and 2.09 pg/mL and 1.34 pg/mL
  CSF IL-13: 1.19 pg/mL and 0.8 pg/mL and 0.71 pg/mL and 1.09 pg/mL
  CSF IL-17α: 0.62 pg/mL
  CSF IP-10: 12150 pg/mL and 4404 pg/mL and 3063 pg/mL and 12231 pg/mL
  CSF MCP-1: 1624 pg/mL and 2268 pg/mL and 987.31 pg/mL and 923.8 pg/mL
  CSF MIP-1α: 4.61 pg/mL and 18.47 pg/mL and 3.38 pg/mL (2×)
  CSF MIP-1β: 23.79 pg/mL and 31.7 pg/mL and 9.58 pg/mL and 5.86 pg/mL
  CSF PDGF-AA: 5.66 pg/mL and 6.92 pg/mL and 2.78 pg/mL (2×)
  CSF TNF-α: 7.46 pg/mL and 6.82 pg/mL and 2.46 pg/mL and 8.22 pg/mL
  CSF apoA-I: 6850 pg/mL and 683.32 pg/mL and 668.25 pg/mL and 788.79 pg/mL
  CSF pTau 181: 61.43 pg/mL and 38.37 pg/mL and 42.96 pg/mL and 19.12 pg/mL
  CSF sCD40L: 2.49 pg/mL (3×) and 4.91 pg/mL
  CSF tTau: 1594 pg/mL and 431.47 pg/mL and 752.55 pg/mL and 234.58 pg/mL
  CSF α-2-M: 10777 pg/mL and 4765 pg/mL and 3814 pg/mL and 2942 pg/mL
  CSF αβ42: 2364 pg/mL and 708.02 pg/mL and 1573 pg/mL and 693.92 pg/mL
[1]; [5]
  CSF Apo. E: 5462 pg/mL and 2829 pg/mL and 2633 pg/mL
  CSF CFH: 3699 pg/mL and 1253 pg/mL and 2446 pg/mL
  CSF Complement C3: 4249 pg/mL and 2914 pg/mL and 1335 pg/mL
  CSF FGF-2: 13.73 pg/mL and 48.91 pg/mL
  CSF G-CSF: 2.84 pg/mL
  CSF GM-CSF: 2.58 pg/mL and 1.29 pg/mL (2×)
  CSF GRO: 117.5 pg/mL and 44.05 pg/mL and 73.45 pg/mL
  CSF IFN-γ: 1.67 pg/mL and 1.01 pg/mL and 0.66 pg/mL
  CSF IL-1α: 3.37 pg/mL and 1.95 pg/mL and 1.42 pg/mL
  CSF IL-1β: 2.16 pg/mL and 1.03 pg/mL and 1.13 pg/mL
  CSF IL-2: 1.44 pg/mL and 0.7 pg/mL and 0.74 pg/mL
  CSF IL-3: 0.82 pg/mL and 0.52 pg/mL and 0.3 pg/mL
  CSF IL-4: 2.71 pg/mL and 2.22 pg/mL and 0.49 pg/mL
  CSF IL-6: 2.85 pg/mL
  CSF IL-8: 234.05 pg/mL and 62.23 pg/mL and 171.82 pg/mL
  CSF IL-10: 2.45 pg/mL and 3.7 pg/mL
  CSF IL-12p40: 1.65 pg/mL and 1.13 pg/mL and 0.52 pg/mL
  CSF IL-12p70: 2.69 pg/mL and 1.25 pg/mL and 1.44 pg/mL
  CSF IL-13: 1.91 pg/mL and 0.99 pg/mL and 0.92 pg/mL
  CSF IL-17α: 1.13 pg/mL and 0.62 pg/mL
  CSF IP-10: 13221 pg/mL and 3398 pg/mL and 9823 pg/mL
  CSF MCP-1: 3992.12 pg/mL and 981.12 pg/mL and 3011 pg/mL
  CSF MIP-1α: 3.38 pg/mL and 5 pg/mL
  CSF MIP-1β: 31.83 pg/mL and 13.92 pg/mL and 17.91 pg/mL
  CSF PDGF-AA: 6.89 pg/mL and 2.9 pg/mL and 3.99 pg/mL
  CSF TNF-α: 8.22 pg/mL and 3.01 pg/mL and 5.21 pg/mL
  CSF apoA-I: 2047.9 pg/mL and 833.9 pg/mL and 1214 pg/mL
  CSF pTau 181: 85.14 pg/mL and 48.8 pg/mL and 36.34 pg/mL
  CSF sCD40L: 2.49 pg/mL
  CSF tTau: 1309.82 pg/mL and 681.32 pg/mL and 628.5 pg/mL
  CSF α-2-M: 7109 pg/mL and 2778 pg/mL and 4331 pg/mL
  CSF αβ42: 2453 pg/mL and 1168 pg/mL and 1285 pg/mL
[2]
  patients withdrawn from the study due to skin allergy: one
[3]
  bioavailability: high
